According to patent US9446061B2, “Composition containing antibiotics and lysophosphatidylcholine for boosting immunity or treatment of bacterial infections” (priority 2011, dated 2016):

Legend:
[1] = Body weight of CPA-treated mice (Example 9); s.c. 4 times 12-hr intervals from 24 hrs after last CPA-dosing; conditions: LPC 1, DW286 0.5, Mix 0.75 mg/kg
Protocol: In the INTACT control group, an equal volume of physiological saline was dosed instead of CPA by the same method.
(§3) In Intact control animals, equal volume of saline was only dosed instead of CPA with same methods.
In CPA-CLP model, body weight and mortalities were measured once a day for 5 days with automatic electronic balances (Sartorius Co., Ltd., USA), once a day for 2 days in CPA-treated model. All animals were overnight fasted at CPA dosing, CLP or initial dosing to reduce differences from feeding. In addition, body weight gains were calculated as follows:
CPA-Treat Model: Body weight at sacrifice—at initial dosing (2 days)
To find suitable dosing regime of LPC and DW286AA combination during the development of new therapeutic agents against sepsis, evaluation was conducted by using CPA-CLP— and CPA-induced immunosuppressive mice. […] Then, mortalities, changes in thymus and spleen weights, changes in white blood cell (WBC) number, and changes in thymic and splenic CD3+, CD4+, CD8+, and TNF-α+ cell numbers, were evaluated together with changes in bone marrow polychromatic erythrocytes contain micronuclei (MNPCE) number.
(§4) Appropriate doses of candidate materials were dissolved in 5% human serum albumin, and subcutaneously dosed at 10 ml/kg (of body weight), 4 times 12-hr intervals from 6 hrs after CLP or 24 hrs after last CPA-dosing, respectively. In the INTACT, CPA, or CPA-CLP control groups, an equal volume of 5% human serum albumin was dosed by the same procedure.

[2] = tested on: CPA-CLP sepsis mouse model; test: Combination effects of LPC and antibiotics (colistin, tobramycin, fusidin) in CPA-CLP sepsis mouse model (SEP013); single i.v. 6 hrs after CLP; assay type: in vivo, ICR mice; conditions: mpk: LPC 5, DW286aa 5, Colistin 5, Tobra 4, Fusidin 80, LPC + Colistin 5 + 5, LPC + Tobra 5 + 4, LPC + Fusidin 5 + 80
Text: (§1) CPA is well known as an immunosuppressive agent. […] Then, the abdomen was closed following the general procedure.
(§2) Then, body weight and mortality changes were observed.

[3] = tested on: bone marrow polychromatic erythrocytes; test: Bone marrow MNPCE and PCE/(PCE+NCE) in CPA-treated mice; conditions: LPC 1, DW286 0.5, Mix 0.75 mg/kg
Protocol: as §3
In brief, bone marrow cells were collected from aforementioned femur in 3 ml of inactivated fetal bovine serum (GIBCO BRL, USA), centrifuged, and smeared on slide. Preparations were dried, and fixed by submerging in absolute methanol (for 10˜20 min). Fixed slides were stained as follow:
Slides were randomly coded and examined under×1000 magnification by two different experts. Small round or oval shaped bodies, size of which ranging about ⅕ to 1/20 of diameter of PCE, were counted as micronuclei. Attention was given to discriminate micronuclei from artifacts. Results were expressed as the number of MNPCEs in 1000 PCEs. Mean number of MNPCE±S.D. was calculated for each treatment group.
as §4

[4] = tested on: CPA-induced immunosuppressive mice; test: Histopathology/histomorphometry of thymus and spleen in CPA-treated mice; assay type: in vivo, ICR mice; conditions: LPC 1, DW286 0.5, Mix 0.75 mg/kg
Protocol: After measuring of organ weight, thymus and spleen was sampled. Sampled organs were fixed in 10% neutral buffered formalin. After paraffin embedding, 3-4 μm sections were prepared. Representative sections were stained with Hematoxylin and Eosin (H&E) for light microscopical examination. After that the histological profiles of individual organs were observed.
The numbers of white pulps in spleen were calculated as N/histological sections (×50) using automated image analysis (analySIS Image Processing; SIS, Germany). In addition, the numbers of atrophic changes on thymic cortex/total observed number of thymus were also calculated.

[5] = tested on: CPA-induced immunosuppressive mice; test: Thymus and spleen organ weights in CPA-treated mice; assay type: in vivo, ICR mice; conditions: LPC 1, DW286 0.5, Mix 0.75 mg/kg
Protocol: At sacrifice of CPA-treated model, the wet-weights of spleen and thymus were measured and regarded as absolute weight and then relative organ weight (% of body weight) was calculated as follow:
=[(Absolute organ weights/Body weight at sacrifice individual)×100]

[6] = tested on: CPA-CLP sepsis mouse model; test: Effects of LPC, LPC isomers, Xigris and DW286aa on mortalities/survivabilities in CPA-CLP sepsis mouse model (SEP009); single i.v. 6 hrs after CLP; assay type: in vivo
Protocol: as §1, §2
In the Sham and CLP control groups, 10 ml/kg of only sterile physiological saline was single intravenously dosed.

[7] = LPC, LPC18:0, LPC18:1, LPA 5 mpk, Xigris 0.4 mpk, DW286aa 10 mpk, 1st CPA treat
[8] = LPC, LPC18:0, LPC18:1, LPA 5 mpk, Xigris 0.4 mpk, DW286aa 10 mpk, 2nd CPA treat
[9] = LPC, LPC18:0, LPC18:1, LPA 5 mpk, Xigris 0.4 mpk, DW286aa 10 mpk, At CLP (day 0)
[10] = LPC, LPC18:0, LPC18:1, LPA 5 mpk, Xigris 0.4 mpk, DW286aa 10 mpk, Day 1
[11] = LPC, LPC18:0, LPC18:1, LPA 5 mpk, Xigris 0.4 mpk, DW286aa 10 mpk, Day 2
[12] = LPC, LPC18:0, LPC18:1, LPA 5 mpk, Xigris 0.4 mpk, DW286aa 10 mpk, Day 3
[13] = LPC, LPC18:0, LPC18:1, LPA 5 mpk, Xigris 0.4 mpk, DW286aa 10 mpk, Day 4
[14] = LPC, LPC18:0, LPC18:1, LPA 5 mpk, Xigris 0.4 mpk, DW286aa 10 mpk, Day 5
[15] = LPC, LPC18:0, LPC18:1, LPA 5 mpk, Xigris 0.4 mpk, DW286aa 10 mpk, Day 6
[16] = LPC, LPC18:0, LPC18:1, LPA 5 mpk, Xigris 0.4 mpk, DW286aa 10 mpk, Day 7
[17] = LPC, LPC18:0, LPC18:1, LPA 5 mpk, Xigris 0.4 mpk, DW286aa 10 mpk, Day 8
[18] = LPC, LPC18:0, LPC18:1, LPA 5 mpk, Xigris 0.4 mpk, DW286aa 10 mpk, Day 9
[19] = LPC, LPC18:0, LPC18:1, LPA 5 mpk, Xigris 0.4 mpk, DW286aa 10 mpk, Day 10
[20] = LPC, LPC18:0, LPC18:1, LPA 5 mpk, Xigris 0.4 mpk, DW286aa 10 mpk, Total
[21] = Xigris 2 mpk, DW286aa 20 mpk, 1st CPA treat
[22] = Xigris 2 mpk, DW286aa 20 mpk, 2nd CPA treat
[23] = Xigris 2 mpk, DW286aa 20 mpk, At CLP (day 0)
[24] = Xigris 2 mpk, DW286aa 20 mpk, Day 1
[25] = Xigris 2 mpk, DW286aa 20 mpk, Day 2
[26] = Xigris 2 mpk, DW286aa 20 mpk, Day 3
[27] = Xigris 2 mpk, DW286aa 20 mpk, Day 4
[28] = Xigris 2 mpk, DW286aa 20 mpk, Day 5
[29] = Xigris 2 mpk, DW286aa 20 mpk, Day 6
[30] = Xigris 2 mpk, DW286aa 20 mpk, Day 7
[31] = Xigris 2 mpk, DW286aa 20 mpk, Day 8
[32] = Xigris 2 mpk, DW286aa 20 mpk, Day 9
[33] = Xigris 2 mpk, DW286aa 20 mpk, Day 10
[34] = Xigris 2 mpk, DW286aa 20 mpk, Total

Molecule `CON=C1CN(c2nc3c(cc2F)c(=O)c(C(=O)O)cn3C2CC2)CC1(C)CN.Cl` (stereo not shown) [DW286aa, 7-[3-(aminomethyl)-4-(methoxyimino)-3-methyltetrahydro-1H-1-pyrrolyl]-1-cyclopropyl-6-fluoro-4-oxo-1,4-dihydro[1,8]naphthyridine-3-carboxylic acid hydrochloric acid salt] has a Body weight ([1]; 1 day after second CPA-dosing) of 37.46 ± 1.96 g, a Body weight ([1]; 2 days after second CPA-dosing) of 38.61 ± 1.95 g and a Body weight ([1]; At Dosing (overnight fasted)) of 33.02 ± 1.95 g. For the same molecule, the Body weight ([1]; At First CPA dosing (overnight fasted)) was 36.84 ± 1.83 g, the “Body weight gains during 2 days after dosing” value [1] was 5.59 ± 1.03 g and the “body weight (gains) change compared to the CPA control group” value [1] was −1.37%. For the same molecule, the Mortalities ([2]; 1st CPA treat) was 0, the Survivalities ([2]; 1st CPA treat) was 100% and the Mortalities ([2]; 2nd CPA treat) was 0. It also gave a Survivalities ([2]; 2nd CPA treat) of 100%, a Mortalities ([2]; At CLP (day 0)) of 0 and a Survivalities ([2]; At CLP (day 0)) of 100%. It also gave a Mortalities ([2]; Day 1) of 0, a Survivalities ([2]; Day 1) of 100% and a Mortalities ([2]; Day 2) of 0. The Survivalities ([2]; Day 2) was 100%, the Mortalities ([2]; Day 3) was 2 and the Survivalities ([2]; Day 3) was 80%. For the same molecule, the Mortalities ([2]; Total) was 2, the Survivalities ([2]; Total) was 80% and the “MNPCE numbers, change compared to CPA control” value [3] was −10.85%. For the same molecule, the “PCE/(PCE+NCE), change compared to CPA control” value [3] was −14.79%, the NCE ([3]; among 500 erythrocytes) was 379.67 ± 17.07 and the PCE ([3]; among 500 erythrocytes) was 120.33 ± 17.07. For the same molecule, the “PCE/(NCE + PCE)” value ([3]; among 500 erythrocytes) was 0.24 ± 0.03, the “% MNPCE” value ([3]; among 1000 PCEs) was 2.56 ± 0.57 % and the “Spleen: Number of white pulps” value [4] was 6.11 ± 1.45 N/histological sections. For the same molecule, the “Thymus: Incidences of thymic cortex atrophy (atrophic changes/total observed number of thymus)” value [4] was 9/9 (100%), the “incidences of decrease of lymphoid cells in the thymic cortex” value [4] was 100% and the “numbers of white pulps of spleen, change compared to CPA control” value [4] was −1.79%. The “Spleen weight, Relative” value ([5]; % of body weight at sacrifice) was 0.117 ± 0.023 %, the “Thymus weight, Relative” value ([5]; % of body weight at sacrifice) was 0.082 ± 0.018 % and the “absolute splenic weights, change compared to CPA control” value [5] was −7.08%. For the same molecule, the “absolute thymic weights, change compared to CPA control” value [5] was −2.73%, the “relative splenic weights, change compared to CPA control” value [5] was −7.46% and the “relative thymic weights, change compared to CPA control” value [5] was −3.12%. The “Spleen weight, Absolute” value ([5]; at sacrifice) was 0.045 ± 0.009 g, the “Thymus weight, Absolute” value ([5]; at sacrifice) was 0.032 ± 0.008 g and the Mortalities [6, 7] was 0. The survivabilities [6, 7] was 100%, the Mortalities [6, 8] was 0 and the survivabilities [6, 8] was 100%. It also gave a Mortalities [6, 9] of 0, a survivabilities [6, 9] of 100% and a Mortalities [6, 10] of 1. It also gave a survivabilities [6, 10] of 90%, a Mortalities [6, 11] of 2 and a survivabilities [6, 11] of 70%. The Mortalities [6, 12] was 0, the survivabilities [6, 12] was 70% and the Mortalities [6, 13] was 0. For the same molecule, the survivabilities [6, 13] was 70%, the Mortalities [6, 14] was 0 and the survivabilities [6, 14] was 70%. The Mortalities [6, 15] was 0, the survivabilities [6, 15] was 70% and the Mortalities [6, 16] was 2. It also gave a survivabilities [6, 16] of 50%, a Mortalities [6, 17] of 1 and a survivabilities [6, 17] of 40%. It also gave a Mortalities [6, 18] of 1, a survivabilities [6, 18] of 30% and a Mortalities [6, 19] of 0. The survivabilities [6, 19] was 30%, the Mortalities [6, 20] was 7 and the survivabilities [6, 20] was 30%. For the same molecule, the Mortalities [6, 21] was 0, the survivabilities [6, 21] was 100% and the Mortalities [6, 22] was 0. It also gave a survivabilities [6, 22] of 100%, a Mortalities [6, 23] of 0 and a survivabilities [6, 23] of 100%. It also gave a Mortalities [6, 24] of 0, a survivabilities [6, 24] of 100% and a Mortalities [6, 25] of 1. The survivabilities [6, 25] was 90%, the Mortalities [6, 26] was 1 and the survivabilities [6, 26] was 80%. For the same molecule, the Mortalities [6, 27] was 0, the survivabilities [6, 27] was 80% and the Mortalities [6, 28] was 0. The survivabilities [6, 28] was 80%, the Mortalities [6, 29] was 2 and the survivabilities [6, 29] was 60%. It also gave a Mortalities [6, 30] of 1, a survivabilities [6, 30] of 50% and a Mortalities [6, 31] of 0. It also gave a survivabilities [6, 31] of 50%, a Mortalities [6, 32] of 1 and a survivabilities [6, 32] of 40%. For the same molecule, the Mortalities [6, 33] was 1, the survivabilities [6, 33] was 30% and the Mortalities [6, 34] was 7. For the same molecule, the survivabilities [6, 34] was 30%.
